Results published in ChEMBL document CHEMBL1128553, “Synthesis of 1,4,7,8,9,10-hexahydro-9-methyl-6-nitropyrido[3,4-f]- quinoxaline-2,3-dione and related quinoxalinediones: characterization of alpha-amino-3-hydroxy-5-methyl-4-isoxazolepropionic acid (and N-methyl-D-aspartate) receptor and anticonvulsant activity” (J Med Chem, 1995).

Key:
[1] = biological target: T1, Glutamate receptor ionotropic, AMPA (Rattus norvegicus, UniProt P19490+P19491+P19492+P19493)
Description: (§1) Binding affinity was determined against ionotropic glutamate receptor AMPA in rat brain synaptic membranes using [3H]AMPA as radioligand

[2] = biological target: Glutamate receptor ionotropic, NMDA 1 (Rattus norvegicus, UniProt P35439); experiment: Affinity for N-methyl-D-aspartate glutamate receptor 1 in rat brain synaptic membranes, using [3H]glycine as radioligand; format: cell membranes
Rattus norvegicus [3] = species on record: Rattus norvegicus; experiment: Concentration of compound that inhibits by 50% LDH released by 24 hr application of 100 uM AMPA; format: functional, organism-based
Rattus norvegicus [4] = species on record: Rattus norvegicus; experiment: Concentration of compound that inhibits by 50% LDH released by 24 hr application of 500 uM kainate; format: functional, organism-based
[5] = biological target: Glutamate receptor ionotropic, kainate; experiment: Antagonistic activity against Ionotropic glutamate receptor kainate induced LDH release in cultured cortical neurons in rat after 24 hr application of 500 uM of kainate; format: functional
[6] = biological target: T1, Glutamate receptor ionotropic, AMPA; remark: listed apart in the source
Description: Inhibition of Ionotropic glutamate receptor AMPA induced depolarization in rat cortical wedge by application of 10 uM of AMPA

[7] = biological target: T1, Glutamate receptor ionotropic, AMPA; remark: listed apart in the source
Description: Antagonistic activity against Ionotropic glutamate receptor AMPA induced LDH release in cultured rat cortical neurons after 24 hr 100 uM AMPA

[8] = biological target: Glutamate receptor ionotropic, kainate; experiment: Binding affinity for the ionotropic glutamate receptor kainate in rat brain synaptic membranes using [3H]kainate as radioligand; format: cell membranes
Rattus norvegicus [9] = species on record: Rattus norvegicus; experiment: Concentration of compound that inhibits by 50% depolarizations induced by 10 uM AMPA; format: functional
[10] = biological target: Glutamate receptor ionotropic, AMPA (Rattus norvegicus, UniProt P19491+P19492+P19493+P19490)
Chain of Glutamate receptor ionotropic, AMPA (Rattus norvegicus, UniProt P19491+P19492+P19493+P19490) (P19491 whole entry): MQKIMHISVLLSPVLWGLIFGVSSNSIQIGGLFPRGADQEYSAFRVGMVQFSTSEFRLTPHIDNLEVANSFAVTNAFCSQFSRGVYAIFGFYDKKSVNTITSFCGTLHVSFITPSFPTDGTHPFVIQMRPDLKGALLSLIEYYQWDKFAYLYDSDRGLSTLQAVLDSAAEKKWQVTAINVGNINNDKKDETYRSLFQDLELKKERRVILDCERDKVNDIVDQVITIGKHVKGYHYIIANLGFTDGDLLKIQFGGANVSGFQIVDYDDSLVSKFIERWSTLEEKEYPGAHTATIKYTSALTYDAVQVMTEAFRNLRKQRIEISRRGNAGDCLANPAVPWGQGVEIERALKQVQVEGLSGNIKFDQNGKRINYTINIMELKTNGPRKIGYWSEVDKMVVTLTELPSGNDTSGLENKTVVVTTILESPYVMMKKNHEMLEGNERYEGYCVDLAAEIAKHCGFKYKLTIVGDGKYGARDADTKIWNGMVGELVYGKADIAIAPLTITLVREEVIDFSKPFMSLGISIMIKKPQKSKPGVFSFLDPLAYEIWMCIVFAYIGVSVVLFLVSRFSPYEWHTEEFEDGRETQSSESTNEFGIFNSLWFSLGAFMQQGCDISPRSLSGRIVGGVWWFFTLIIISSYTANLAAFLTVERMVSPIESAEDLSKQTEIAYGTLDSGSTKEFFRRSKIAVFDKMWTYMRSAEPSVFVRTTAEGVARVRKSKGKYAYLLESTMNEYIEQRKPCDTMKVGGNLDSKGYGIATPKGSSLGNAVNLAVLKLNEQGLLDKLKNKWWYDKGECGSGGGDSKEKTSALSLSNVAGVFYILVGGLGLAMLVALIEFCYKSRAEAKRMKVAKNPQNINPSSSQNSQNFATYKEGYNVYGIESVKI
Chain of Glutamate receptor ionotropic, AMPA (Rattus norvegicus, UniProt P19491+P19492+P19493+P19490) (P19492 whole entry): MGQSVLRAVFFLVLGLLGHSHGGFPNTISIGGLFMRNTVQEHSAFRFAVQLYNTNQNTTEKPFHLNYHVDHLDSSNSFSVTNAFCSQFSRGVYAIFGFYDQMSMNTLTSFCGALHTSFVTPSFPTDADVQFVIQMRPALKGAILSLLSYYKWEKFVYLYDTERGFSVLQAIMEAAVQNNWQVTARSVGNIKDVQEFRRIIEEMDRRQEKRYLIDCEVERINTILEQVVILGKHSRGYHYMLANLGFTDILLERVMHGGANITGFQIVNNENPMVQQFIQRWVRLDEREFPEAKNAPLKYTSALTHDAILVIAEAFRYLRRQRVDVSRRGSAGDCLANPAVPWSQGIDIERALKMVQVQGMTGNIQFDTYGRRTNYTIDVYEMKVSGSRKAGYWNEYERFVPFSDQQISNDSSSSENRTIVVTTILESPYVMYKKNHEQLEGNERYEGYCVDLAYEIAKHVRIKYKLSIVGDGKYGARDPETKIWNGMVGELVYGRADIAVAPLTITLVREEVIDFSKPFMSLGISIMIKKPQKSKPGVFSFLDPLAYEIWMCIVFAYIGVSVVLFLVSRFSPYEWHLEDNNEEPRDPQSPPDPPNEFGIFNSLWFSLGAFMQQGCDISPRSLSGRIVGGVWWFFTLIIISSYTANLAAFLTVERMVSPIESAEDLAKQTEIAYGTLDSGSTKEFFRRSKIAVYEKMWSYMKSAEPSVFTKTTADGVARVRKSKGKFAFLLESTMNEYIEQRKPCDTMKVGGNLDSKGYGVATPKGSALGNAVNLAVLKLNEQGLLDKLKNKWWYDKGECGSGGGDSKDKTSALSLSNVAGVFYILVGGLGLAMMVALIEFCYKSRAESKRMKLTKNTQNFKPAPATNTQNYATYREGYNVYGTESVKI
Chain of Glutamate receptor ionotropic, AMPA (Rattus norvegicus, UniProt P19491+P19492+P19493+P19490) (P19493 whole entry): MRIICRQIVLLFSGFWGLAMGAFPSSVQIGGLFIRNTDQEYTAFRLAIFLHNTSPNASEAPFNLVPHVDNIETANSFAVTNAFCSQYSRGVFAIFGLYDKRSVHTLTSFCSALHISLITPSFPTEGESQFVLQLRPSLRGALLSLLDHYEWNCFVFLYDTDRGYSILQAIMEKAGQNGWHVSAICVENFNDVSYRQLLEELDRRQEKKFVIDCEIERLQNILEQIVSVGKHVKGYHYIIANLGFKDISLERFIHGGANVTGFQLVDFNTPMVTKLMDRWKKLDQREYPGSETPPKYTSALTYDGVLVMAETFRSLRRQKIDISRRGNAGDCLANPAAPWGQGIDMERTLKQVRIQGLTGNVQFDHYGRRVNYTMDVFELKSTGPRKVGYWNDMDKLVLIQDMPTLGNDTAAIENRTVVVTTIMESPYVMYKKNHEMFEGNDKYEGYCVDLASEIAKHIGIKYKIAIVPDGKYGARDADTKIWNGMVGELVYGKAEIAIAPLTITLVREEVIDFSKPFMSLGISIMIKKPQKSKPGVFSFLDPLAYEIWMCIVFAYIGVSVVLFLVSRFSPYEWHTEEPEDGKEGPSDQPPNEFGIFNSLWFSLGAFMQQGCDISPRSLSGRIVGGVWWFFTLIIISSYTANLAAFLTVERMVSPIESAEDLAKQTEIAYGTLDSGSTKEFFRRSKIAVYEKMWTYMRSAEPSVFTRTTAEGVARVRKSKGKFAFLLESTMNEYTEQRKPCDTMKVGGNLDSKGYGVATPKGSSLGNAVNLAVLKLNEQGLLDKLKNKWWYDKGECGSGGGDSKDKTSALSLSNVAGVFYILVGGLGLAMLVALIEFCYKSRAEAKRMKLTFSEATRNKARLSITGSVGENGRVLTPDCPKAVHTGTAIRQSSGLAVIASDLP
Chain of Glutamate receptor ionotropic, AMPA (Rattus norvegicus, UniProt P19491+P19492+P19493+P19490) (P19490 whole entry): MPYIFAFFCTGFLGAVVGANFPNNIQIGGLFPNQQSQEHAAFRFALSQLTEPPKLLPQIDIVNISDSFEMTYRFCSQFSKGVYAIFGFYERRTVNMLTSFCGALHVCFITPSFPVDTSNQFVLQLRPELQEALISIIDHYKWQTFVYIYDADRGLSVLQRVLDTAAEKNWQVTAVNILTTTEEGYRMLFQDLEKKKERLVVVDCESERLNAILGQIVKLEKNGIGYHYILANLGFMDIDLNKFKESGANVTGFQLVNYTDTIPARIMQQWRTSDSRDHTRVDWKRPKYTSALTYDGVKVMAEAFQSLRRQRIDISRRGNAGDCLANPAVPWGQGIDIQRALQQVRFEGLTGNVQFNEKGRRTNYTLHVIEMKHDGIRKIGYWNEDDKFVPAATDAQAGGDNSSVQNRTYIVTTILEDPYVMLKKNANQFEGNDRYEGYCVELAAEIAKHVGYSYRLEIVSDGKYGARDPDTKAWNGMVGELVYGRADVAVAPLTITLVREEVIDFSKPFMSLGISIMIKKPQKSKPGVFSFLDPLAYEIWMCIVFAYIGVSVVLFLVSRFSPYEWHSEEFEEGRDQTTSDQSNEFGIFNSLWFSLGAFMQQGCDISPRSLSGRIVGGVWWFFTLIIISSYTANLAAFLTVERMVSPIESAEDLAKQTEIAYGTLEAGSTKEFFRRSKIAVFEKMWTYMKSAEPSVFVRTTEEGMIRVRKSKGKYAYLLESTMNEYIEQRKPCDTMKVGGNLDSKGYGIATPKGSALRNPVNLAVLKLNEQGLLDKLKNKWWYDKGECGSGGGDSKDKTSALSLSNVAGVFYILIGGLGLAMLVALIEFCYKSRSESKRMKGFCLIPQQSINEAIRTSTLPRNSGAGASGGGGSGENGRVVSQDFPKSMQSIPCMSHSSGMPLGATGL
Description: as §1

SMILES	IC50 [1]	IC50 [2]	IC50 (Rattus norvegicus [3])	IC50 (Rattus norvegicus [4])	IC50 [5]	IC50 [6]	IC50 [7]	IC50 [8]	IC50 (Rattus norvegicus [9])	IC50 [10]
COC(=O)CC1c2ccc(Cl)cc2NC(=O)C1[N+](=O)[O-] (configuration not stated)	139 µM	–	–	–	–	–	–	–	–	–
CCN1CCc2c([N+](=O)[O-])cc3[nH]c(=O)c(=O)[nH]c3c2C1	0.166 µM	1.4 µM	6 µM	7 µM	7 µM	0.7 µM	6 µM	0.52 µM	0.7 µM	–
CCC(C)CN1CCc2c(Br)cc3nc(O)c(O)nc3c2C1 (configuration not stated)	> 100 µM	> 100 µM	> 30 µM	> 30 µM	> 30 µM	> 30 µM	> 30 µM	2.9 µM	> 30 µM	–
CCC(C)CN1CCc2c(ccc3nc(O)c(O)nc23)C1 (configuration not stated)	> 100 µM	> 100 µM	–	–	–	–	–	48 µM	–	–
CCN1CCc2c(c(Br)cc3[nH]c(=O)c(=O)[nH]c23)C1	1.3 µM	267 µM	–	–	–	–	–	14 µM	–	–
CC(C)N1CCc2c([N+](=O)[O-])cc3[nH]c(=O)c(=O)[nH]c3c2C1	0.153 µM	0.93 µM	6 µM	7 µM	7 µM	1.5 µM	6 µM	0.29 µM	1.5 µM	–
CCN1CCc2c(c([N+](=O)[O-])cc3nc(O)c(O)nc23)C1	0.54 µM	5 µM	25 µM	26 µM	26 µM	14 µM	25 µM	0.49 µM	14 µM	–
Cc1cc2[nH]c(=O)c(=O)[nH]c2c2c1CN(C)CC2	17.6 µM	> 10 µM	–	–	–	–	–	6.7 µM	–	–
CCC(C)N1CCc2c([N+](=O)[O-])cc3[nH]c(=O)c(=O)[nH]c3c2C1 (configuration not stated)	0.28 µM	0.93 µM	15 µM	–	–	1.6 µM	15 µM	0.85 µM	1.6 µM	–
CCC(C)N1CCc2ccc3nc(O)c(O)nc3c2C1 (configuration not stated)	> 100 µM	–	–	–	–	–	–	21 µM	–	–
COC(=O)c1cc2nc(O)c(O)nc2c2c1CN(C)CC2	44 µM	–	–	–	–	–	–	22 µM	–	–
CN1CCc2ccc3[nH]c(=O)c(=O)[nH]c3c2C1	18 µM	> 100 µM	–	–	–	–	–	71.2 µM	–	–
O=c1[nH]c2ccc3c(c2[nH]c1=O)NCCC3	2.2 µM	1.3 µM	–	–	–	–	–	11 µM	–	–
CN1CCCc2c1ccc1nc(O)c(O)nc21	24 µM	–	–	–	–	–	–	–	–	–
CN1CCc2c(ccc3[nH]c(=O)c(=O)[nH]c23)C1	6.5 µM	> 100 µM	–	–	–	–	–	29.2 µM	–	–
CCCCCCCN1CCc2c(ccc3[nH]c(=O)c(=O)[nH]c23)C1	> 100 µM	> 100 µM	–	–	–	–	–	45 µM	–	–
CCCN1CCc2c(c([N+](=O)[O-])cc3[nH]c(=O)c(=O)[nH]c23)C1	2.8 µM	20 µM	–	–	–	–	–	1.7 µM	–	–
CCCN1CCc2c(ccc3[nH]c(=O)c(=O)[nH]c23)C1	18 µM	–	–	–	–	–	–	23 µM	–	–
CCCCCCCN1CCc2c(c([N+](=O)[O-])cc3[nH]c(=O)c(=O)[nH]c23)C1	5.8 µM	> 10 µM	–	–	–	–	–	79 µM	–	–
CCOC(=O)c1nc2cc(Br)c3c(c2nc1O)CCN(C)C3	> 100 µM	–	–	–	–	–	–	–	–	–
O=c1[nH]c2cc(Br)c3c(c2[nH]c1=O)CNCC3	3.5 µM	1 µM	–	–	–	–	–	1.5 µM	–	–
Oc1nc2ccc3c(c2nc1O)CCNC3	12 µM	–	–	–	–	–	–	17 µM	–	–
CN1CCc2c(c(S(=O)(=O)c3ccccc3)cc3nc(O)c(O)nc23)C1	96 µM	–	–	–	–	–	–	72 µM	–	–
CCC(C)CN1CCc2c(c([N+](=O)[O-])cc3[nH]c(=O)c(=O)[nH]c23)C1 (configuration not stated)	1.3 µM	> 100 µM	–	–	–	–	–	15 µM	–	–
CN1CCc2c(C#N)cc3[nH]c(=O)c(=O)[nH]c3c2C1	1.36 µM	1.4 µM	–	–	–	–	–	2.4 µM	–	–

SMILES	IC50 [1]	IC50 [2]	IC50 (Rattus norvegicus [3])	IC50 (Rattus norvegicus [4])	IC50 [5]	IC50 [6]	IC50 [7]	IC50 [8]	IC50 (Rattus norvegicus [9])	IC50 [10]
CN1CCc2c(Br)cc3[nH]c(=O)c(=O)[nH]c3c2C1	2.84 µM	4 µM	–	–	–	–	–	2.83 µM	–	–
CC(C)CCN1CCc2c(Br)cc3nc(O)c(O)nc3c2C1	9.7 µM	> 10 µM	> 30 µM	> 30 µM	> 30 µM	16.5 µM	> 30 µM	0.68 µM	16.5 µM	–
CCC(C)N1CCc2c(Br)cc3nc(O)c(O)nc3c2C1 (configuration not stated)	2.5 µM	> 10 µM	–	–	–	–	–	0.43 µM	–	–
CC(C)CCN1CCc2ccc3nc(O)c(O)nc3c2C1	123 µM	–	–	–	–	–	–	25 µM	–	–
CCN1CCc2c(Br)cc3[nH]c(=O)c(=O)[nH]c3c2C1	0.74 µM	0.62 µM	–	–	–	–	–	6.4 µM	–	–
O=C(NS(=O)(=O)c1ccccc1)c1nc2cc(Cl)c(Cl)cc2[nH]c1=O	4.3 µM	–	–	–	–	–	–	–	–	–
CN1CCc2c(c(C(=O)O)cc3nc(O)c(O)nc23)C1	56 µM	–	–	–	–	–	–	36 µM	–	–
CN1CCc2c([N+](=O)[O-])cc3[nH]c(=O)c(=O)[nH]c3c2C1	0.063 µM	0.37 µM	2.5 µM	4 µM	4 µM	0.5 µM	2.5 µM	0.368 µM	0.5 µM	0.063 µM
CCc1cnc2c(O)nc3cc([N+](=O)[O-])c(-n4ccnc4)cc3n12	0.02 µM	–	–	–	–	–	–	–	–	–
CCOC(=O)C(=O)N1CCCc2c1ccc1[nH]c(=O)c(=O)[nH]c21	13 µM	50 µM	–	–	–	–	–	20 µM	–	–
CN1Cc2c(S(=O)(=O)N(C)C)cc3c(N=O)c(O)[nH]c3c2C1	0.6 µM	–	–	–	–	–	–	–	–	–
CCN1CCc2ccc3[nH]c(=O)c(=O)[nH]c3c2C1	41 µM	–	–	–	–	–	–	20 µM	–	–
CC(C)CCN1CCc2c([N+](=O)[O-])cc3[nH]c(=O)c(=O)[nH]c3c2C1	0.11 µM	0.86 µM	5 µM	7 µM	7 µM	–	5 µM	1.18 µM	–	–
CN1CCc2c(N)cc3[nH]c(=O)c(=O)[nH]c3c2C1	100 µM	> 100 µM	–	–	–	–	–	28 µM	–	–
CCCN1CCc2c(c(Br)cc3nc(O)c(O)nc23)C1	1.1 µM	> 10 µM	–	–	–	–	–	6.4 µM	–	–
CN1CCc2c(c(Br)c([N+](=O)[O-])c3[nH]c(=O)c(=O)[nH]c23)C1	1.9 µM	> 10 µM	–	–	–	–	–	5.7 µM	–	–
CCN1CCc2c(ccc3nc(O)c(O)nc23)C1	21 µM	–	–	–	–	–	–	37 µM	–	–
O=c1[nH]c2cc(Br)c3c(c2[nH]c1=O)CCCN3	9 µM	–	–	–	–	–	–	–	–	–
CN1CCc2c(c([N+](=O)[O-])cc3[nH]c(=O)c(=O)[nH]c23)C1	0.29 µM	4.9 µM	18 µM	9 µM	9 µM	1.8 µM	18 µM	0.38 µM	1.8 µM	–
CC(=O)Nc1cc2[nH]c(=O)c(=O)[nH]c2c2c1CCN(C)C2	> 100 µM	> 100 µM	–	–	–	–	–	> 100 µM	–	–
Oc1nc2ccc3c(c2nc1O)CCCN3	24 µM	–	–	–	–	–	–	8.9 µM	–	–
CN1CCc2c(c(Br)cc3[nH]c(=O)c(=O)[nH]c23)C1	1.86 µM	4.3 µM	–	–	–	–	–	1.76 µM	–	–
CCC(C)CN1CCc2ccc3nc(O)c(O)nc3c2C1 (configuration not stated)	> 100 µM	–	–	–	–	–	–	–	–	–
CCC(C)CN1CCc2c([N+](=O)[O-])cc3[nH]c(=O)c(=O)[nH]c3c2C1 (configuration not stated)	0.28 µM	1.3 µM	8 µM	11 µM	11 µM	–	8 µM	0.28 µM	–	–
O=c1[nH]c2cc(-n3ccnc3)c([N+](=O)[O-])cc2[nH]c1=O [YM-90K]	0.2 µM	–	–	–	–	–	–	–	–	–
